From patent US20230009626A1 (ICHNOS SCIENCES S.A., priority 2018, published 2023)

Biological target: HPK1 (MAP4K1) (Homo sapiens, UniProt Q92918)
Assay: FRET Assay for HPK1 (MAP4K1): one step binding assay, displacement of labeled tracer
Settings: for inhibition at 1 µM: 1 μM compound; for inhibition at 1 µM / inhibition at 10 µM: FRET ratio 665/620, percent of control; for inhibition at 10 µM: 10 μM compound; for IC50: dose response curve, nonlinear regression
Summary of the method: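 Percent inhibition at 1.0 and 10.0 μM and IC50 by nonlinear regression were derived from loss of FRET signal versus control. The signal runs from Eu-anti-GST antibody (4 nM) bound to 10 nM HPK1 kinase to Alexa Fluor 647 Kinase Tracer 222 (20 nM), added after a 15-min on-ice compound pre-incubation. Binding then proceeded 1 h at room temperature in HEPES pH 7.5 buffer with 10 mM MgCl2, 1 mM EGTA, 0.01% Brij-35 and 3% DMSO.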

HPK1 (MAP4K1), sequence (Q92918 whole entry): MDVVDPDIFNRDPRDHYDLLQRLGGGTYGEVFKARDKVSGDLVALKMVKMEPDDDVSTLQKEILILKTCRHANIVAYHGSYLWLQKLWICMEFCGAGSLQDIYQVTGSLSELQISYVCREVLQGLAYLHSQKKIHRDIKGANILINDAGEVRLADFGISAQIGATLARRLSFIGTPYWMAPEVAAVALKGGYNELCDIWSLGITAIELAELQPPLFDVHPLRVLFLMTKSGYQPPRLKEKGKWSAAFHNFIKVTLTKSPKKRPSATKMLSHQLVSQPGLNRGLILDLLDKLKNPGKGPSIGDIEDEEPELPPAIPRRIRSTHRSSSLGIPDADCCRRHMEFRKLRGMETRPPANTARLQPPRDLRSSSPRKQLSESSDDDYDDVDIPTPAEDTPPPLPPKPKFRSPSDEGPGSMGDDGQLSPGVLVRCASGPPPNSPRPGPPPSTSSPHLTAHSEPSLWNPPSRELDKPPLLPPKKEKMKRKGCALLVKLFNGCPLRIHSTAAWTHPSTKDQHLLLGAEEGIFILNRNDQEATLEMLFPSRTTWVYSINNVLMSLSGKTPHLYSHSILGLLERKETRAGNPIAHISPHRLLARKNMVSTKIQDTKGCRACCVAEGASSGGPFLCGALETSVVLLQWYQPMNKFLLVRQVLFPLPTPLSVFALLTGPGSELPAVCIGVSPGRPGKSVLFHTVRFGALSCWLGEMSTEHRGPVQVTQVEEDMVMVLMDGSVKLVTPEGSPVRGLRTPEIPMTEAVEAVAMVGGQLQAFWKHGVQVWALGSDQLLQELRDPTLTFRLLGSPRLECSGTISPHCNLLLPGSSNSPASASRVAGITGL

Row | Structure (SMILES) | inhibition at 1 µM | inhibition at 10 µM | IC50
1 | COc1cccc(F)c1-c1cc2c(cn1)NC(=O)/C2=C(/C)Nc1cnn(C[C@H](C)O)c1 [Example 173, (S,Z)-5-(2-Fluoro-6-methoxyphenyl)-3-(1-((1-(2-hydroxypropyl)-1H-pyrazol-4-yl)amino)ethylidene)-1H-pyrrolo[2,3-c]pyridin-2(3H)-one] | 66.8% | 77.4% | < 50 nM
2 | C/C(Nc1cnn(CC2(O)CC2)c1)=C1/C(=O)Nc2cnc(-c3cnccc3C)cc21 [Example 174, (Z)-3-(1-((1-((1-Hydroxycyclopropyl)methyl)-1H-pyrazol-4-yl)amino)ethylidene)-5-(4-methylpyridin-3-yl)-1H-pyrrolo[2,3-c]pyridin-2(3H)-one] | 55.1% | 64.8% | < 50 nM
3 | C/C(Nc1nn(C)c2ccccc12)=C1/C(=O)Nc2cnc(-c3cnccc3C)cc21 [Example 175, (Z)-3-(1-((1-Methyl-1H-indazol-3-yl)amino)ethylidene)-5-(4-methylpyridin-3-yl)-1H-pyrrolo[2,3-c]pyridin-2(3H)-one] | 72.6% | – | < 50 nM
4 | C/C(Nc1cnn(CC[C@H](C)O)c1)=C1/C(=O)Nc2cnc(-c3cnccc3C)cc21 [Example 176, (S,Z)-3-(1-((1-(3-Hydroxybutyl)-1H-pyrazol-4-yl)amino)ethylidene)-5-(4-methylpyridin-3-yl)-1H-pyrrolo[2,3-c]pyridin-2(3H)-one] | 75.4% | 62.3% | < 50 nM
5 | C/C(Nc1ccc(OC2CCN(C(=O)C3CC3)CC2)nc1)=C1/C(=O)Nc2cnc(-c3cnccc3C)cc21 [Example 177, (Z)-3-(1-((6-((1-(Cyclopropanecarbonyl)piperidin-4-yl)oxy)pyridin-3-yl)amino)ethylidene)-5-(4-methylpyridin-3-yl)-1H-pyrrolo[2,3-c]pyridin-2(3H)-one] | 69.4% | 66.6% | < 50 nM

Further lines, results first:

Row | inhibition at 1 µM | inhibition at 10 µM | IC50 | Structure (SMILES)
6 | 68% | 77.8% | < 50 nM | C/C(Nc1ncc(C)s1)=C1/C(=O)Nc2cnc(-c3cnccc3C)cc21 [Example 178, (Z)-5-(4-Methylpyridin-3-yl)-3-(1-((5-methylthiazol-2-yl)amino)ethylidene)-1H-pyrrolo[2,3-c]pyridin-2(3H)-one]
7 | 66.9% | 77.6% | < 50 nM | C/C(Nc1cc(C)[nH]n1)=C1/C(=O)Nc2cnc(-c3cnccc3C)cc21 [Example 179, (Z)-3-(1-((5-Methyl-1H-pyrazol-3-yl)amino)ethylidene)-5-(4-methylpyridin-3-yl)-1H-pyrrolo[2,3-c]pyridin-2(3H)-one]
8 | 73% | 76.2% | < 50 nM | CCS(=O)(=O)n1nc(N/C(C)=C2\C(=O)Nc3cnc(-c4cnccc4C)cc32)cc1C [Example 180, (Z)-3-(1-((1-(Ethylsulfonyl)-5-methyl-1H-pyrazol-3-yl)amino)ethylidene)-5-(4-methylpyridin-3-yl)-1H-pyrrolo[2,3-c]pyridin-2(3H)-one]
9 | 76.8% | 80.8% | < 50 nM | C/C(Nc1cc(C)n(CC(C)(C)O)n1)=C1/C(=O)Nc2cnc(-c3cnccc3C)cc21 [Example 181, (Z)-3-(1-((1-(2-Hydroxy-2-methylpropyl)-5-methyl-1H-pyrazol-3-yl)amino)ethylidene)-5-(4-methylpyridin-3-yl)-1H-pyrrolo[2,3-c]pyridin-2(3H)-one]
10 | 78.8% | 73% | < 50 nM | CCn1nc(N/C(C)=C2\C(=O)Nc3cnc(-c4cnccc4C)cc32)cc1C [Example 182, (Z)-3-(1-((1-Ethyl-5-methyl-1H-pyrazol-3-yl)amino)ethylidene)-5-(4-methylpyridin-3-yl)-1H-pyrrolo[2,3-c]pyridin-2(3H)-one]
